Assay results published in patent publication US8945862B2, “Triple-fusion constructs and methods of monitoring human embryonic stem cells” (The Board of Trustees of the Leland Stanford Junior …, priority 2007, dated 2015).

Tested on: H9^DF hESCs
Assay: Bioluminescent imaging of transplanted hESC survival under immunosuppressive drug treatment
Assay type: in vivo, BALB/c mice
Conditions: for BLI signal by post-transplant day 10: single drug treatment groups
Description: H1, H9 and H9DF hESCs were initially maintained on top of murine embryonic fibroblasts feeder (MEF) layers as detailed in SI Methods. To prevent contamination of the transplanted hESC population with MEF, hESC colonies were separated from MEF by incubation with dispase (Invitrogen) and subcultured on feeder-free matrigel (hESC qualified, BD Biosciences) coated 6-well plates in mTeSR™ 1 maintenance medium (Stem Cell Technologies) for 2 to 5 passages. MHC expression on hESCs was evaluated by flow cytometry as detailed in SI Methods. Shortly prior to transplantation, hESCs were trypsinated, and resuspended in sterile PBS at 1×10^6 cells per 20 μl. hESC transplantation was performed by direct injection into gastrocnemius muscles of recipient mice (using a 29.5 gauge insulin syringe.
BLI was performed using the Xenogen In Vivo Imaging System as previously described (38). Briefly, mice were anesthetized with isoflurane and D-luciferin was administered intraperitoneally at a dose of 375 mg/kg body weight. At the time of imaging, animals were placed in a light-tight chamber, and photons emitted from luciferase expressing hESCs transplanted into the animals were collected with integration times of 5 sec-5 min, depending on the intensity of the bioluminescence emission. The same mice were scanned repetitively as per the study design. BLI signal was quantified in units of photons per second (Total flux) and presented as Log[photons/sec].

SMILES	improvement of hESC survival by addition of MMF (over single TAC and/or SIR treatment)	BLI signal by post-transplant day 10	BLI signal at day 7 (monotherapy, 1×10^6 H9^DF hESCs in gastrocnemius muscle, NT 4.98±0.04, P<0.05)
COc1c(C)c2c(c(O)c1C/C=C(\C)CCC(=O)OCCN1CCOCC1)C(=O)OC2 [MMF, mycophenolate mofetil]	did not result in significant improvement	decreased to background levels	–
CO[C@H]1C[C@@H]2CC[C@@H](C)[C@@](O)(O2)C(=O)C(=O)N2CCCC[C@H]2C(=O)O[C@H]([C@H](C)C[C@@H]2CC[C@@H](O)[C@H](OC)C2)CC(=O)[C@H](C)/C=C(\C)[C@@H](O)[C@@H](OC)C(=O)[C@H](C)C[C@H](C)/C=C/C=C/C=C/1C [SIR, sirolimus]	–	–	6.4±0.29 Log^[photons/sec]
C=CC[C@@H]1/C=C(\C)C[C@H](C)C[C@H](OC)[C@H]2O[C@@](O)(C(=O)C(=O)N3CCCC[C@H]3C(=O)O[C@H](/C(C)=C/[C@@H]3CC[C@@H](O)[C@H](OC)C3)[C@H](C)[C@@H](O)CC1=O)[C@H](C)C[C@@H]2OC [TAC, Tacrolimus]	–	decreased to background levels	–
